Reference: US8110703B2, “Retinoid derivative and pharmaceutical composition and use thereof” (Anhui Medical University, priority 2008, dated 2012)
“And” between values parts separate entries of the source, which are not always exact repeats. Equal values may be shown once. Marks after values point to notes of the source that are not given here.

What was measured:
Assay type in all cases: cell-based
HepG2 cells [1] = assay: γ-GT specific activity of HepG2 cells; conditions: DMSO
HepG2 cells [2] = assay: Cell cycle and apoptosis by flow cytometry, HepG2; conditions: HepG2, flow cytometry
NB4 cells = assay: Cell cycle analysis by flow cytometer, NB4; design: S %: dose or concentration left out as unconfirmed; conditions: 72 h
Procedure: (§1) Retinoic acid derivatives and fenretinide are prepared as a storage solution of 10 mg/mL by anhydrous ethanol and stored at […] and kept out of light.
(§2) NB4 cells and K562 cells are inoculated with an initial concentration of 2*10^5/ml in the RPMI1640 culture solution having 10% of calf serum (FBS), 100 u/ml of penicillin, 100 Lg/ml of streptomycin and 2 mmol/L of glutamine for suspension culture (37° C., 5% CO2). Change the solution every 2-3 days.
(§3) For the cells above acted by the retinoic acid derivatives and fenretinide ([…]) for 72 h, about 10^6 of them are collected, washed by PBS twice, fixed by 70% of cold ethanol over 24 h, washed by PBS twice, added with 5 ug/ml of propidium iodide for staining and detected by a flow cytometer from which the data are analyzed and processed by the multi-cycle software.

A549 cells = assay: Differentiation index: CEA secretory volume of A549 cells; conditions: A549 culture supernatant, 10 ug/ml, 3 d
Procedure: 1.6 Detection of Differentiation Index The cultured A549 cells are randomly divided into 6 10 μg/ml drug groups, cell control groups, solvent control groups (DMSO and ethanol) and 10 μg/ml fenretinide control groups (11 in total). The control groups and drug groups are cultured for 3 days to collect respective 3 tubes of cell culture solutions which are centrifugated at a speed of 4000 r/min for 5 min to take the supernatant and detect the CEA content of the kit by using enzyme kinetics and CEA detection.

A549 lung cancer cells = assay: MTT cell growth and proliferation experiment, A549; design: key to Inhibition Rate: (control OD570 − test OD570)/control OD570, as fraction
Procedure: (§4) 1.1 Reagents 12 retinoic acid derivatives with the final concentrations of 1 ug/ml, 5 ug/ml and 10 ug/ml are synthesized by the Pharmaceutical College of Anhui Medical University using DMSO and anhydrous ethanol, separately packaged for storage at −20° C. and kept out of the light when used, and the final concentration of DMSO is less than 0.1%. MTT is purchased from Sigma Corp. The Coulter DNA detection kit is presented by the Central Lab of Anhui Provincial Hospital. AFP and γ-GT are provided by the Clinical Lab of No. 105 Hospital of PLA. Apoptosis-Hoechst staining kit is purchased from Beyotime Company.
(§5) 1.2 Cell Culture A549, and HpeG2 cells are stored by our lab. Cell growth condition: DMEM (from GIBICO Company) culture solution is added with 10% of calf serum (purchased from the Hangzhou Sijiqing Biological Engineering Material Co., Ltd.) to culture in a cell culture incubator (37° C., 5% CO2) with saturated humidity.
(§6) 1.3 Cell Growth and Proliferation Experiments MTT process is used. Cells in the logarithmic phase are picked and seeded on a 96-hole culture board with a cell concentration of 5×10^7/L. Each hole of the board is 200 ul. The next day after the adherence, the original solution is discarded, and the culture solution is added. The cells are divided into 1 ug/ml retinoic acid derivative groups, 5 ug/ml retinoic acid derivative groups, 10 ug/ml retinoic acid derivative groups, blank control groups, cell control groups, solvent control groups (1‰ DMSO and anhydrous ethanol) (17 in total) according to the concentrations thereof, incubated for 3d, added with MTT (5 g/L) of 20 ul/hole for incubation at 37° C. for 4 h. The original solution is carefully discarded and dried, and DMSO of 20 ul/hole is added to dissolve crystals, followed by vibrating for 10 min and determining the OD value at 570 nm. Each concentration is corresponding to 5 holes, and each group calculates the average of 3 experiments to calculate the inhibition rate to the cell growth according to the optical density (OD) average of each hole in each group and the following equation: inhibition rate %=(control hole OD570−experimental hole OD570)/control hole OD5700*100%. The process above is repeated for three times. The second experiment takes the maximum concentration (10 […]) for culture respectively for 1, 2, 3 and 7 days and repeat for three times.

liver cancer HepG2 cells = assay: MTT cell growth and proliferation experiment, HepG2; design: key to Inhibition Rate: (control OD570 − test OD570)/control OD570, as fraction; conditions: for Inhibition Rate: fraction
Procedure: as §4, §5, §6

K562 cells = assay: Cell cycle analysis by flow cytometer, K562; design: S %: dose or concentration left out as unconfirmed; conditions: 72 h
Procedure: as §1, §2, §3

HepG2 cells [3] = assay: AFP secretory volume of HepG2 cells; conditions: HepG2 cells, DMSO
[4] = A549, MTT time gradient, 10 ug/ml, 1 d
[5] = A549, MTT time gradient, 10 ug/ml, 1 d, fraction
[6] = A549, MTT time gradient, 10 ug/ml, 2 d
[7] = A549, MTT time gradient, 10 ug/ml, 2 d, fraction
[8] = A549, MTT time gradient, 10 ug/ml, 3 d
[9] = A549, MTT time gradient, 10 ug/ml, 3 d, fraction
[10] = A549, MTT time gradient, 10 ug/ml, 7 d
[11] = A549, MTT time gradient, 10 ug/ml, 7 d, fraction
[12] = HepG2, MTT OD 570 nm, 1 ug/ml, 3 d, solvent not given
[13] = HepG2, MTT OD 570 nm, 5 ug/ml, 3 d, solvent not given
[14] = HepG2, MTT OD 570 nm, 10 ug/ml, 3 d, solvent not given
[15] = HepG2, MTT time gradient, 10 ug/ml, 1 d
[16] = HepG2, MTT time gradient, 10 ug/ml, 2 d
[17] = HepG2, MTT time gradient, 10 ug/ml, 3 d
[18] = HepG2, MTT time gradient, 10 ug/ml, 7 d
[19] = HepG2, MTT, 1 ug/ml, 3 d, solvent not given
[20] = HepG2, MTT, 5 ug/ml, 3 d, solvent not given
[21] = HepG2, MTT, 10 ug/ml, 3 d, solvent not given
[22] = HepG2, Table 5 repeat MTT, 10 ug/ml, 3 days, DMSO

Question: What does the source list for `CC1=C(/C=C/C(C)=C/C=C/C(C)=C/C(=O)Oc2ccccc2C(F)(F)F)C(C)(C)CCC1` [Example 2a-03, (2-trifluoromethylphenyl)-(all-trans)-3,7-dimethyl-9-(2,6,6-trimethyl-1-cyclohexen-1-yl)-2,4,6,8-nonatetraenoate]?
Answer: γ-GT (HepG2 cells [1]): 60.6 ± 0.5 U/L; Apoptosis Rate (%) (HepG2 cells [2]): 16.3* %; G0-G1 (%) (HepG2 cells [2]): 57.3%; G2-M (%) (HepG2 cells [2]): 3.40%; S % (HepG2 cells [2]): 25.5%; G1 % (NB4 cells): 65.72%; G2 % (NB4 cells): 5.54%; S % (NB4 cells): 28.74%; CEA (A549 cells; ethanol): 3.9 µg/L; OD Value (x ± s) (A549 lung cancer cells; A549, MTT OD 570 nm, 1 ug/ml, 3 d, solvent ethanol): 1.639 ± 0.115; OD Value (x ± s) (A549 lung cancer cells; A549, MTT OD 570 nm, 5 ug/ml, 3 d, solvent ethanol): 1.555 ± 0.162; OD Value (x ± s) (A549 lung cancer cells; A549, MTT OD 570 nm, 10 ug/ml, 3 d, solvent ethanol): 1.382 ± 0.133; OD Value (x ± s) (A549 lung cancer cells; [4]): 0.902 ± 0.055; Inhibition Rate (A549 lung cancer cells; [5]): 0.016; OD Value (x ± s) (A549 lung cancer cells; [6]): 1.066 ± 0.015; Inhibition Rate (A549 lung cancer cells; [7]): 0.271; OD Value (x ± s) (A549 lung cancer cells; [8]): 0.635 ± 0.033; Inhibition Rate (A549 lung cancer cells; [9]): 0.315; OD Value (x ± s) (A549 lung cancer cells; [10]): 1.393 ± 0.043; Inhibition Rate (A549 lung cancer cells; [11]): 0.328; Inhibition Rate (A549 lung cancer cells; A549, MTT, 1 ug/ml, 3 d, solvent ethanol, given as fraction): 0.122; Inhibition Rate (A549 lung cancer cells; A549, MTT, 5 ug/ml, 3 d, solvent ethanol, given as fraction): 0.167; Inhibition Rate (A549 lung cancer cells; A549, MTT, 10 ug/ml, 3 d, solvent ethanol, given as fraction): 0.260; OD Value (x ± s) (liver cancer HepG2 cells; [12]): 1.32 ± 0.50; OD Value (x ± s) (liver cancer HepG2 cells; [13]): 1.32 ± 0.56; OD Value (x ± s) (liver cancer HepG2 cells; [14]): 0.98 ± 0.19; OD Value (x ± s) (liver cancer HepG2 cells; [15]): 1.61 ± 0.14; Inhibition Rate (liver cancer HepG2 cells; [15]): 0.07; OD Value (x ± s) (liver cancer HepG2 cells; [16]): 1.55 ± 0.09; Inhibition Rate (liver cancer HepG2 cells; [16]): 0.08; OD Value (x ± s) (liver cancer HepG2 cells; [17]): 1.24 ± 0.09; Inhibition Rate (liver cancer HepG2 cells; [17]): 0.09; OD Value (x ± s) (liver cancer HepG2 cells; [18]): 0.79 ± 0.08; Inhibition Rate (liver cancer HepG2 cells; [18]): 0.36; Inhibition Rate (liver cancer HepG2 cells; [19]): 0.22; Inhibition Rate (liver cancer HepG2 cells; [20]): 0.23; Inhibition Rate (liver cancer HepG2 cells; [21]): 0.42; OD Value (x ± s) (liver cancer HepG2 cells; [22]): 1.847 ± 0.091; Inhibition Rate (liver cancer HepG2 cells; [22]): 0.468*; G1 % (K562 cells): 45.1%; G2 % (K562 cells): 7.6%; S % (K562 cells): 47.3%; AFP (HepG2 cells [3]): 14.7 µg/L

Question: What does the source list for `CC1=C(/C=C/C(C)=C/C=C/C(C)=C/C(=O)Nc2cccc(C(F)(F)F)c2)C(C)(C)CCC1` [Example 3a-02, (3-trifluoromethylphenyl)-(all-trans)-3,7-dimethyl-9-(2,6,6-trimethyl-1-cyclohexen-1-yl)-2,4,6,8-nonatetraenoic acid amide]?
Answer: γ-GT (HepG2 cells [1]): 35.6 ± 1.0 U/L; Apoptosis Rate (%) (HepG2 cells [2]): 30.2* %; G0-G1 (%) (HepG2 cells [2]): 40.3%; G2-M (%) (HepG2 cells [2]): 2.71%; S % (HepG2 cells [2]): 27.9%; G1 % (NB4 cells): 45.83%; G2 % (NB4 cells): 2.87%; S % (NB4 cells): 51.30%; CEA (A549 cells; DMSO): 2.8 µg/L; OD Value (x ± s) (A549 lung cancer cells; A549, MTT OD 570 nm, 1 ug/ml, 3 d, solvent DMSO (D)): 1.551 ± 0.083 and 1.517 ± 0.100; OD Value (x ± s) (A549 lung cancer cells; A549, MTT OD 570 nm, 5 ug/ml, 3 d, solvent DMSO (D)): 1.510 ± 0.193 and 1.357 ± 0.159; OD Value (x ± s) (A549 lung cancer cells; A549, MTT OD 570 nm, 10 ug/ml, 3 d, solvent DMSO (D)): 1.296 ± 0.192 and 0.939 ± 0.040; OD Value (x ± s) (A549 lung cancer cells; [4]): 0.617 ± 0.072; Inhibition Rate (A549 lung cancer cells; [5]): 0.327; OD Value (x ± s) (A549 lung cancer cells; [6]): 0.703 ± 0.025; Inhibition Rate (A549 lung cancer cells; [7]): 0.519; OD Value (x ± s) (A549 lung cancer cells; [8]): 0.229 ± 0.010; Inhibition Rate (A549 lung cancer cells; [9]): 0.753; OD Value (x ± s) (A549 lung cancer cells; [10]): 0.106 ± 0.035; Inhibition Rate (A549 lung cancer cells; [11]): 0.949; Inhibition Rate (A549 lung cancer cells; A549, MTT, 1 ug/ml, 3 d, solvent DMSO (D), given as fraction): 0.169 and 0.187; Inhibition Rate (A549 lung cancer cells; A549, MTT, 5 ug/ml, 3 d, solvent DMSO (D), given as fraction): 0.191 and 0.273; Inhibition Rate (A549 lung cancer cells; A549, MTT, 10 ug/ml, 3 d, solvent DMSO (D), given as fraction): 0.305 and 0.497; OD Value (x ± s) (liver cancer HepG2 cells; [12]): 1.19 ± 0.50; OD Value (x ± s) (liver cancer HepG2 cells; [13]): 0.92 ± 0.27; OD Value (x ± s) (liver cancer HepG2 cells; [14]): 0.94 ± 0.41; OD Value (x ± s) (liver cancer HepG2 cells; [15]): 1.43 ± 0.07; Inhibition Rate (liver cancer HepG2 cells; [15]): 0.17; OD Value (x ± s) (liver cancer HepG2 cells; [16]): 0.81 ± 0.12; Inhibition Rate (liver cancer HepG2 cells; [16]): 0.52; OD Value (x ± s) (liver cancer HepG2 cells; [17]): 0.55 ± 0.03; Inhibition Rate (liver cancer HepG2 cells; [17]): 0.55; OD Value (x ± s) (liver cancer HepG2 cells; [18]): 0.32 ± 0.12; Inhibition Rate (liver cancer HepG2 cells; [18]): 0.76; Inhibition Rate (liver cancer HepG2 cells; [19]): 0.30; Inhibition Rate (liver cancer HepG2 cells; [20]): 0.45; Inhibition Rate (liver cancer HepG2 cells; [21]): 0.45; OD Value (x ± s) (liver cancer HepG2 cells; [22]): 1.331 ± 0.067; Inhibition Rate (liver cancer HepG2 cells; [22]): 0.385*; G1 % (K562 cells): 39.7%; G2 % (K562 cells): 6.0%; S % (K562 cells): 54.2%; AFP (HepG2 cells [3]): 15.6 µg/L
